{"source": "patent US7468380B2", "about": "“Nitrogen-containing aromatic derivatives” (Eisai R&D Management Co., Ltd., priority 2002, dated 2008)", "tested_on": "VEGF high-expressing pancreatic cancer cells (KP-1/VEGF)", "experiment": "Antitumor activity on KP-1/VEGF cells in subcutaneous xenograft models", "type": "in vivo, mouse", "settings": "60 mg/kg/day, oral twice a day, 2 weeks, Balb/c (nu/nu) mice", "description": "VEGF high-expressing pancreatic cancer cells (KP-1/VEGF) suspended in PBS at a concentration of 1×10^7 cells/ml were transplanted under the right flank skin of 6-week-old female Balb/c (nu/nu) mice in a volume of 0.1 ml. When the tumor volume reached approximately 100 mm^3, the test substance was orally administered twice a day over a period of 2 weeks with a schedule of 5 days per week. The test substance was suspended in 0.5% methyl cellulose for an administered volume of 0.1 ml/10 g body weight. The tumor size was measured twice a week using a micrometer caliper. The tumor volume was determined by measuring the long and short diameters of the tumor with a micrometer caliper, and calculating ½×(long diameter×short diameter×short diameter). The experiment was conducted using 10 mice in the control (solvent-administered) group and 5 mice in each test substance-administered group."}
{"molecule": "CNC(=O)n1ccc2cc(Oc3ccnc(NC(=O)N4CCC(N5CCCC5)CC4)c3)ccc21", "note": "[Example 46, N1-Methyl-5-(2-(((4-(pyrrolidin-1-yl)piperidin-1-yl)carbonyl)amino)pyridin-4-yloxy)-1H-1-indolecarboxamide]", "values": [{"measurement": "proportion of the tumor volume to that of control", "value": 60.0, "unit": "%"}]}
